Patent US8586617B2, “Aminomethyl-4-imidazoles” (Hoffmann-La Roche Inc., priority 2006, dated 2013)

Molecular target: TAAR1 (Mus musculus (Mouse), UniProt Q923Y8)
Experiment: TAAR1 radioligand binding assay ([3H]-rac-2-(1,2,3,4-tetrahydro-1-naphthyl)-2-imidazoline, membranes of stably transfected HEK293 cells)
Settings: not given

Sequence of TAAR1 (Q923Y8 whole entry): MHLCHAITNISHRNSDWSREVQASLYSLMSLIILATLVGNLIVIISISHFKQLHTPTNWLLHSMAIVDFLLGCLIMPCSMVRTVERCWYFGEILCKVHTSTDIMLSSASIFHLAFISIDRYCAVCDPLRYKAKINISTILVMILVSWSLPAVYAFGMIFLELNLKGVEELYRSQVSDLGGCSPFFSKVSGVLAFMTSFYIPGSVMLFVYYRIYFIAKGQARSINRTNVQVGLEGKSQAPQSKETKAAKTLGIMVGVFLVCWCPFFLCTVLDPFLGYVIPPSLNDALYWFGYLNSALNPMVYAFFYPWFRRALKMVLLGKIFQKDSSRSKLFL

In the case of `CCN(Cc1cnc[nH]1)c1cccc(C(F)(F)F)n1` [Example 251, Ethyl-(1H-imidazol-4-ylmethyl)-(6-trifluoromethyl-pyridin-2-yl)-amine], the Ki is reported as 0.009 µM.

Same assay, conditions: read-out: Ki (μM) mouse; mouse TAAR1; radioligand [3H]-rac-2-(1,2,3,4-tetrahydro-1-naphthyl)-2-imidazoline at 60 nM; 4° C., 30 minutes

In order of falling Ki:
1. Fc1ccc(NCc2cnc[nH]2)cc1Oc1ccccc1 [Example 202, (4-Fluoro-3-phenoxy-phenyl)-(3H-imidazol-4-ylmethyl)-amine]  0.0084 µM
2. CN(Cc1cnc[nH]1)c1ccc(F)c(F)c1 [Example 287, (3,4-Difluoro-phenyl)-(1H-imidazol-4-ylmethyl)-methyl-amine]  0.007 µM
3. CN(Cc1cnc[nH]1)c1cc(F)cc(F)c1 [Example 292, (3,5-Difluoro-phenyl)-(1H-imidazol-4-ylmethyl)-methyl-amine]  0.007 µM
4. Fc1cc(F)cc(NCc2cnc[nH]2)c1 [Example 277, (3,5-Difluoro-phenyl)-(1H-imidazol-4-ylmethyl)-amine]  0.006 µM
5. COc1cc(N(Cc2cnc[nH]2)C(C)C)ccc1Cl [Example 204, (4-Chloro-3-methoxy-phenyl)-(3H-imidazol-4-ylmethyl)-isopropyl-amine]  0.005 µM
6. CC(C)N(Cc1cnc[nH]1)c1cccc(Oc2cccc(Cl)c2)c1 [Example 206, [3-(3-Chloro-phenoxy)-phenyl]-(3H-imidazol-4-ylmethyl)-isopropyl-amine]  0.005 µM
7. CCN(Cc1cnc[nH]1)c1cccc(OC(F)F)c1 [Example 195, (3-Difluoromethoxy-phenyl)-ethyl-(3H-imidazol-4-ylmethyl)-amine]  0.0042 µM
8. CCN(Cc1cnc[nH]1)c1nc(Cl)cc(Cl)n1 [Example 237, (4,6-Dichloro-pyrimidin-2-yl)-ethyl-(1H-imidazol-4-ylmethyl)-amine]  0.004 µM
9. CC(C)N(Cc1cnc[nH]1)c1cccc(Br)n1 [Example 244, (6-Bromo-pyridin-2-yl)-(3H-imidazol-4-ylmethyl)-isopropyl-amine]  0.004 µM
10. Brc1ccc(NCc2cnc[nH]2)cc1Br [Example 279, (3,4-Dibromo-phenyl)-(1H-imidazol-4-ylmethyl)-amine]  0.004 µM
11. Fc1ccc(NCc2cnc[nH]2)cc1Cl [Example 281, (3-Chloro-4-fluoro-phenyl)-(1H-imidazol-4-ylmethyl)-amine]  0.004 µM
12. CC(C)N(Cc1cnc[nH]1)c1ccc(Br)cc1 [Example 296, (4-Bromo-phenyl)-(1H-imidazol-4-ylmethyl)-isopropyl-amine]  0.004 µM
13. CC(C)N(Cc1cnc[nH]1)c1ccc(F)c(Oc2ccccc2)c1 [Example 208, (4-Fluoro-3-phenoxy-phenyl)-(3H-imidazol-4-ylmethyl)-isopropyl-amine]  0.003 µM
14. CCN(Cc1cnc[nH]1)c1ccc(Br)cc1 [Example 302, (4-Bromo-phenyl)-ethyl-(1H-imidazol-4-ylmethyl)-amine]  0.003 µM
15. CCN(Cc1cnc[nH]1)c1ccc(F)c(Br)c1 [Example 309, (3-Bromo-4-fluoro-phenyl)-ethyl-(1H-imidazol-4-ylmethyl)-amine]  0.003 µM
16. Clc1cccc(Oc2cccc(NCc3cnc[nH]3)c2)c1 [Example 200, [3-(3-Chloro-phenoxy)-phenyl]-(3H-imidazol-4-ylmethyl)-amine]  0.0028 µM
17. CC(C)N(Cc1cnc[nH]1)c1cccc(COc2ccccc2)c1 [Example 207, (3H-Imidazol-4-ylmethyl)-isopropyl-(3-phenoxymethyl-phenyl)-amine]  0.002 µM
18. CC(C)c1cccc(NCc2cnc[nH]2)c1 [Example 228, (3H-Imidazol-4-ylmethyl)-(3-isopropyl-phenyl)-amine]  0.002 µM
19. CN(Cc1cnc[nH]1)c1cccc(Br)c1 [Example 284, (3-Bromo-phenyl)-(3H-imidazol-4-ylmethyl)-methyl-amine]  0.002 µM
20. CN(Cc1cnc[nH]1)c1ccc(Cl)c(Cl)c1 [Example 288, (3,4-Dichloro-phenyl)-(1H-imidazol-4-ylmethyl)-methyl-amine]  0.002 µM
21. CCN(Cc1cnc[nH]1)c1ccc(Br)c(F)c1 [Example 305, (4-Bromo-3-fluoro-phenyl)-ethyl-(1H-imidazol-4-ylmethyl)-amine]  0.002 µM
22. CCN(Cc1cnc[nH]1)c1cc(F)cc(F)c1 [Example 306, (3,5-Difluoro-phenyl)-ethyl-(1H-imidazol-4-ylmethyl)-amine]  0.002 µM
23. CCN(Cc1cnc[nH]1)c1ccc(Cl)c(F)c1 [Example 307, (4-Chloro-3-fluoro-phenyl)-ethyl-(1H-imidazol-4-ylmethyl)-amine]  0.002 µM
24. CCN(Cc1cnc[nH]1)c1ccc(Cl)c(OC)c1 [Example 324, (4-Chloro-3-methoxy-phenyl)-ethyl-(1H-imidazol-4-ylmethyl)-amine]  0.002 µM
25. Clc1cc(NCc2cnc[nH]2)ccc1Br [Example 325, (4-Bromo-3-chloro-phenyl)-(1H-imidazol-4-ylmethyl)-amine]  0.002 µM
26. FC(F)(F)Oc1ccc(NCc2cnc[nH]2)cc1Cl [Example 327, (3-Chloro-4-trifluoromethoxy-phenyl)-(1H-imidazol-4-ylmethyl)-amine]  0.002 µM
27. Brc1cccc(NCc2cnc[nH]2)c1 [Example 225, (3-Bromo-phenyl)-(3H-imidazol-4-ylmethyl)-amine]  0.001 µM
28. FC(F)(F)c1cc(Br)cc(NCc2cnc[nH]2)c1 [Example 226, (3-Bromo-5-trifluoromethyl-phenyl)-(3H-imidazol-4-ylmethyl)-amine]  0.001 µM
29. CC(C)N(Cc1cnc[nH]1)c1cccc(Br)c1 [Example 242, (3-Bromo-phenyl)-(3H-imidazol-4-ylmethyl)-isopropyl-amine]  0.001 µM
30. CCN(Cc1cnc[nH]1)c1ccc(Cl)c(Cl)c1 [Example 247, (3,4-Dichloro-phenyl)-ethyl-(1H-imidazol-4-ylmethyl)-amine]  0.001 µM
31. CCN(Cc1cnc[nH]1)c1cccc(Br)c1 [Example 275, (3-Bromo-phenyl)-ethyl-(3H-imidazol-4-ylmethyl)-amine]  0.001 µM
32. CN(Cc1cnc[nH]1)c1cc(Cl)cc(Cl)c1 [Example 291, (3,5-Dichloro-phenyl)-(1H-imidazol-4-ylmethyl)-methyl-amine]  0.001 µM
33. CC(C)N(Cc1cnc[nH]1)c1ccc(Br)c(Br)c1 [Example 297, (3,4-Dibromo-phenyl)-(1H-imidazol-4-ylmethyl)-isopropyl-amine]  0.001 µM
34. CCN(Cc1cnc[nH]1)c1cc(Cl)cc(Cl)c1 [Example 303, (3,5-Dichloro-phenyl)-ethyl-(1H-imidazol-4-ylmethyl)-amine]  0.001 µM
35. CCN(Cc1cnc[nH]1)c1cc(F)cc(Cl)c1 [Example 308, (3-Chloro-5-fluoro-phenyl)-ethyl-(1H-imidazol-4-ylmethyl)-amine]  0.001 µM
36. CCN(Cc1cnc[nH]1)c1ccc(F)c(Cl)c1 [Example 312, (3-Chloro-4-fluoro-phenyl)-ethyl-(1H-imidazol-4-ylmethyl)-amine]  0.001 µM
37. CC(C)N(Cc1cnc[nH]1)c1ccc(Br)c(Cl)c1 [Example 331, (4-Bromo-3-chloro-phenyl)-(1#H!-imidazol-4-ylmethyl)-isopropyl-amine]  0.001 µM
38. CCN(Cc1cnc[nH]1)c1ccc(OC(F)(F)F)c(Cl)c1 [Example 333, (3-Chloro-4-trifluoromethoxy-phenyl)-ethyl-(1H-imidazol-4-ylmethyl)-amine]  0.001 µM
